# Assay results taken from patent US9346957B2, “Cell permeable, fluorescent dye” (École Polytechnique Fédérale de Lausanne (EPFL), priority 2011, dated 2016).
# Legend:
# [1] = tested on: SNAP-tag fusion proteins; test: Live cell labeling of SNAP-tag fusion proteins, fluorescence imaging; assay type: cell-based; conditions: living mammalian cells, incubation with dye
# Protocol: (§1) As a representative example for the labeling of a SNAP-tag fusion with BG-Sir650, the labeling and fluorescence imaging of SNAP-Cep41 (microtubule binding protein) fusion protein in U2OS cells is described. SNAP-Cep41 was expressed from episomal pEBTet plasmid encoding puromycin resistance under a doxycycline inducible promoter in U2OS cells. Prior to induction of expression, cells were selected by growing them in complete Dulbecco's Modified Eagle's Medium (DMEM) with 1 μg/ml puromycin for at least 1.5 weeks. SNAP-Cep41 fusion protein expression was induced for 48 h by adding to complete DMEM grow medium doxycycline at final concentration of 0.1 μg/ml before staining procedure. Living cells were stained by replacing old media with complete DMEM growth media containing 5 μM BG-SiR650, and incubated for 30 min at 37° C. in 5% CO2 incubator. Cells were washed two times with Hank's Buffered Salt Solution (HBSS) for 5 min and once with media for 1 h. Before imaging, growth media was replaced with HBSS. Images (FIG. 2A) were acquired on a confocal fluorescence microscope as z-stacks and presented as maximum intensity projections. For the imaging of fixed cells, living cells were labeled with 1 μM BG-Sir650 for 30 min at 37° C. […] Images (FIG. 2B) were acquired on a confocal fluorescence microscope as z-stack and presented as maximum intensity projections. […]
# [2] = tested on: mammalian cells; test: Membrane permeability, shown by incubating cells with the dye and fluorescence imaging; assay type: cell-based; conditions: simple incubation with the dye
# Protocol: as §1
smiles,measurement,setting,value
CN(C)c1ccc2c(c1)[Si](C)(C)C1=CC(=[N+](C)C)C=CC1=C2c1cc(C(=O)NCc2ccc(COc3nc(N)nc4[nH]cnc34)cc2)ccc1C(=O)[O-] [SiR650-6BG],specific labeling of SNAP-tag fusion proteins in living cells,[1],permits the specific labeling of SNAP-tag fusion proteins
same,membrane permeability,[2],excellent membrane permeability
